{"source": "patent US8377468B2", "about": "“Dry wound dressing and drug delivery system” (Rexaderm, Inc., priority 2006, dated 2013)", "system": "diabetic leg ulcer", "assay": "Case report: treatment of a diabetic leg ulcer", "format": "in vivo, human", "from_the_text": "FIG. 1-6 are a series of 6 pictures taken sequentially after treatment of a leg ulcer, which had persisted for over 6 months without healing, using the dry dressing described herein that contained human cellular fibronectin (cFN).\nThe cFN dressing was held on with either a 4×4 sponge and tape or with a BAND-AID™ (adhesive bandage).\nA few months after the lesion occurred, a dermatologist obtained a biopsy sample, and the ulcer became infected, resulting in a larger lesion that was greatly inflamed. The lesion was treated with Avelox™. It appeared to heal in a few months, when the patient removed what appeared to be dead skin. The lesion opened again, and the patient treated it with Neosporin, Iodine, and Merthiolate. The dermatologist took a swab of the lesion. After the patient used the Bactro-Ban (Muciprocin) recommended by the dermatologist for two weeks, the wound became worse so the patient sealed it with Merthiolate. A bleeding lesion the size of a nickel persisted. The patient began treatment with cFN wound dressing of Example 2 about two weeks later, changing the dressing every 48 hours except for the first day. (The first change was at 24 hours). For the first 4 days, the material was fixed to the wound with a 4×4 gauze pad and an ACE bandage, then with a Band-Aid. […]", "data": [{"smiles": "C/C(=C\\C(=O)OCCCCCCCCC(=O)O)C[C@@H]1OC[C@H](C[C@@H]2O[C@H]2[C@@H](C)[C@H](C)O)[C@@H](O)[C@H]1O", "note": "[Bactro-Ban, Muciprocin]", "values": [{"measurement": "lesion size", "setting": "FIG. 1, after wound was treated for two weeks", "value": "12-15 mm"}, {"measurement": "wound outcome", "setting": "used for two weeks", "value": "became worse"}]}]}
